What was measured:
[1] = tested on: SJSA-1; test: Antiproliferative activity against human SJSA1 cells
[2] = target: RKO; test: Antiproliferative activity against human RKO cells
[3] = target: SW480; test: Antiproliferative activity against human SW480 cells
[4] = target: MDA-MB-435; test: Antiproliferative activity against human MDA435 cells
[5] = target: HCT-116; test: Antiproliferative activity against human HCT116 cells

Row | IC50 [1] [µM] | IC50 [2] [µM] | IC50 [3] [µM] | IC50 [4] [µM] | IC50 [5] [µM] | Compound
1 | 4.55 |  |  |  |  | O=C1N=C(NCc2cccs2)S/C1=C/c1ccc2ncccc2c1
2 | 3.24 | 1.39 | 3.07 | 2.03 | 1.58 | O=C1N=C(N[C@@H](CO)Cc2ccccc2)SC1=Cc1ccc2ncccc2c1 [(R,Z)-2-(1-hydroxy-3-phenylpropan-2-ylamino)-5-(quinolin-6-ylmethylene)thiazol-4(5H)-one]
3 | 1.85 |  |  |  |  | O=C1N=C(N[C@@H]2C[C@H]2c2ccccc2)SC1=Cc1ccc2ncccc2c1 [(Z)-2-((1R,2S)-2-phenylcyclopropylamino)-5-(quinolin-6-ylmethylene)thiazol-4(5H)-one]
